This note sets out measurements from PMC5293562, “Engineering a trifunctional proline utilization A chimaera by fusing a DNA-binding domain to a bifunctional PutA” (Bioscience Reports, 2016).

Usually stoichiometry N stands for the number of molecules, sites or subunits per partner or assembly. Broadly, the Kd is the concentration at which binding is half-saturated.

In one data set the test system is T1, EcRHH–RcPutA.
T1 construct: gene putA; single polypeptide: E. coli PutA RHH domain (residues 1-52) fused via NdeI linker to N-terminus of full-length R. capsulatus PutA; 1180 aa; N-terminal His6 tag retained; pET28a, E. coli BL21(DE3) pLysS; homodimer, 126 kDa monomer
Kind of data set: stopped-flow, CoQ1 reduction at […] nm. The format is biochemical, Rhodobacter capsulatus. Particulars: 50 mM potassium phosphate pH 7.5, 25 mM NaCl, 23°C.

A further data set concerns the target T2, EcPutA (Escherichia coli, UniProt P09546).
T2 construct: gene putA
Particulars: 50 mM proline reduces flavin; anaerobic; HEPES pH 7.5, 150 mM NaCl; room temperature.

In the next data set the target is T3, RcPutA (Rhodobacter capsulatus, UniProt D5AN87).
T3 construct: gene putA
T3 sequence (D5AN87 1-1127): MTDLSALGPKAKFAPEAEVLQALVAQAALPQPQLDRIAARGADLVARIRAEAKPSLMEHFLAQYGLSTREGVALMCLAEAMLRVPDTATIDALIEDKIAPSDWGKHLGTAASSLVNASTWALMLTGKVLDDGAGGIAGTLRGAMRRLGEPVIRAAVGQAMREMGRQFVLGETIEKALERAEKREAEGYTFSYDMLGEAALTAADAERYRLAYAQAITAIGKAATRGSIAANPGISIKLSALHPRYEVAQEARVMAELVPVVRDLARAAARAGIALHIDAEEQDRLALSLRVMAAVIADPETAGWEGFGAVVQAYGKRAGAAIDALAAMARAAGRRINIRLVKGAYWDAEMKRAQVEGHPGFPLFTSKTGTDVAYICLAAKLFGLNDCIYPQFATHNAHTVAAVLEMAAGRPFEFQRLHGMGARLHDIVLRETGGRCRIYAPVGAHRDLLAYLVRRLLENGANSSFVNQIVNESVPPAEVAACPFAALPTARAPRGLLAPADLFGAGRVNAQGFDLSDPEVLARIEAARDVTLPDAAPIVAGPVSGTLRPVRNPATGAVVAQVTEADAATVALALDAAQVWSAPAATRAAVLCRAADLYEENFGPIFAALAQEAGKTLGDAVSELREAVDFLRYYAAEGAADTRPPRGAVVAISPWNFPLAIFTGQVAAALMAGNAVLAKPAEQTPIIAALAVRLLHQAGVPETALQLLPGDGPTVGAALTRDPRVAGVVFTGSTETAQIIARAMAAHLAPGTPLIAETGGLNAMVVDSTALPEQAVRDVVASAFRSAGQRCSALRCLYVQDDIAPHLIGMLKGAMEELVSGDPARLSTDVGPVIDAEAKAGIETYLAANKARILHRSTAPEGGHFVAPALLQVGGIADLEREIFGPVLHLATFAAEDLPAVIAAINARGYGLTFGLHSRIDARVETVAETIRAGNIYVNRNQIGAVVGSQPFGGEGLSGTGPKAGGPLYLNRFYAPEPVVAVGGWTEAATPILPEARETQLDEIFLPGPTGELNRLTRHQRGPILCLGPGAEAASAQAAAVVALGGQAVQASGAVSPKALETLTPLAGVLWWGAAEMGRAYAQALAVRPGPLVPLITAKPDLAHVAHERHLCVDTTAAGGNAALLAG
Particulars: 50 mM proline reduces flavin; anaerobic; HEPES pH 7.5, 150 mM NaCl; room temperature.

Data set [1] has as its target EcRHH–RcPutA chimaera (RHH domain of Escherichia coli PutA fused to the N-terminus of Rhodobacter capsulatus PutA) (Escherichia coli | Rhodobacter capsulatus) (UniProt P09546). In words: AUC; sedimentation equilibrium, 0.2, 0.5 and 0.8 mg/ml, 8000 rpm, 50 mM Tris pH 7.5, 100 mM NaCl, 0.5 mM EDTA, 5% glycerol; global fit to an ideal single-species model.
For data set [2] the target is unchanged. Kind of data set: SAXS; three protein concentrations after size exclusion chromatography in 50 mM Tris, 200 mM NaCl, 0.5 mM THP, pH 7.5; mass from volume of correlation and Porod-Debye analysis; shape reconstruction with 2-fold symmetry. On the technique in general: In gel filtration, larger molecules generally elute earlier.
Data set [3] deals with EcRHH-RcPutA chimaera (Escherichia coli / Rhodobacter capsulatus (chimaera)). In words: EMSA. Particulars: EMSA with 3 nM IRdye-700 put control DNA, 100 ug/ml calf thymus DNA, non-denaturing 4% polyacrylamide gel; binding buffer, salt, pH and temperature not given ….

Like-named read-outs stand apart in the source and are kept apart here.

Chain of EcRHH–RcPutA chimaera (RHH domain of Escherichia coli PutA fused to the N-terminus of Rhodobacter capsulatus PutA) (P09546 whole entry, the tested form may be a part): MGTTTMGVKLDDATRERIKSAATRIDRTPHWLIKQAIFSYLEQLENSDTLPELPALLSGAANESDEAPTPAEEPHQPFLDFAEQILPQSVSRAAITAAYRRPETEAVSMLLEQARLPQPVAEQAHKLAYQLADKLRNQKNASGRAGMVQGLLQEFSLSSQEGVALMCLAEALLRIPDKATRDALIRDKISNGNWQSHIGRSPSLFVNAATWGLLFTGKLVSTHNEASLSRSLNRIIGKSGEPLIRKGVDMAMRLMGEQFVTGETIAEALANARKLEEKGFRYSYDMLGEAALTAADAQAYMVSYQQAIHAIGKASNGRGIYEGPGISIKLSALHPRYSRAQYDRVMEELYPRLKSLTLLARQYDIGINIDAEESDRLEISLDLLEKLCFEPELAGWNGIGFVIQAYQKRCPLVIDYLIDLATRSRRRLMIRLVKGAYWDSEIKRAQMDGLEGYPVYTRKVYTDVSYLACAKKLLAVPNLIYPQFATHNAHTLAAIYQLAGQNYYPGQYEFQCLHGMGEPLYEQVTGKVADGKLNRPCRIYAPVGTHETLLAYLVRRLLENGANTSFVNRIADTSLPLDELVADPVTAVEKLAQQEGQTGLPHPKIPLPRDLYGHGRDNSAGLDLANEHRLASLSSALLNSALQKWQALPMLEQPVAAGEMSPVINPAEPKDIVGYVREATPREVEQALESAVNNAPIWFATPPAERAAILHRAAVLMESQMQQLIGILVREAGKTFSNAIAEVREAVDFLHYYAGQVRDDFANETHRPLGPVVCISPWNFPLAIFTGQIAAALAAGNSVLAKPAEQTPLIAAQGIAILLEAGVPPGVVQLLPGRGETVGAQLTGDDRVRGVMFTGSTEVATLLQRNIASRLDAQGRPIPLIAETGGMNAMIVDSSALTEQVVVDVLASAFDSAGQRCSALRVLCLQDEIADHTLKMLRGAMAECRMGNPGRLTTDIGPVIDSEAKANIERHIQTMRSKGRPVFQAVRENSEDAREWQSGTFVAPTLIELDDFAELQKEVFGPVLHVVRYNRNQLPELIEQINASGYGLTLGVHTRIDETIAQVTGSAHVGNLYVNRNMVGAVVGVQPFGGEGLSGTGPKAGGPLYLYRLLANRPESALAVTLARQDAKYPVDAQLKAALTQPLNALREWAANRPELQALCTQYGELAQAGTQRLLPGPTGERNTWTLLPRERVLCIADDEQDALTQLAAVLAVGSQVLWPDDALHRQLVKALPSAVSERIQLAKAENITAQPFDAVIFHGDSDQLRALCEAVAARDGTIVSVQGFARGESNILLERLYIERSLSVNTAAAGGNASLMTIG
T2 sequence (P09546 whole entry): as the sequence (P09546 whole entry, the tested form may be a part) above

As for `O=C(O)[C@@H]1CCCN1` [proline], the Km in the data set with EcRHH–RcPutA (PRODH site, 300 μM CoQ1, read-out: Km) is 5300 ± 900 µM. Moreover, the “lipid pull-down (E. coli polar lipid vesicles), SDS/PAGE” value at EcPutA was “RcPutA, EcRHH–RcPutA and EcPutA were incubated with E. coli polar lipid vesicles”; on RcPutA, “In the presence of proline, RcPutA and EcRHH–RcPutA significantly partition into the lipid fraction”. Take “EcRHH–RcPutA chimaera (RHH domain of Escherichia coli PutA fused to the N-terminus of Rhodobacter capsulatus PutA) (from UniProt P09546 1-52) (enzyme)”: the stoichiometry N in data set [1] and in data set [2] was 2 throughout.

put control DNA (420 bp): in data set [3], the Kd is 0.058 µM.

Take `COC1=C(OC)C(=O)C(CC=C(C)C)=C(C)C1=O` [CoQ1]: the Km in the data set on EcRHH–RcPutA (PRODH electron acceptor, 200 mM proline, read-out: Proline / Km) amounted to 161 ± 15.8 µM.
